From ChEMBL document CHEMBL3885861, “Open TG-GATES”

Organism: Rattus norvegicus
Experiment: Open TG-GATES - Regimen: Daily Repeat
Type: toxicity, organism-based, Sprague-Dawley
Parameters: regimen Daily Repeat, gender Male, age 6 weeks
Conditions: in vivo, po, route gavage; for APTT / Bas / Eos / Fbg / Hb / Ht / Lym / MCH / MCHC / MCV / Mono / Neu / PT / Plat / RBC / Ret / WBC: tissue Blood; for KIDNEY_L / KIDNEY_R / KIDNEY_TOTAL: tissue Kidney; for LIVER: tissue Liver; for A/G / ALP / ALT / AST / BUN / CRE / Ca / Cl / DBIL / GLC / IP / K / LDH / Na / PL / RALB / TBIL / TC / TG / TP / gamma-GTP: tissue Plasma
[1] = 100 mg/kg, 72 h, dose level Middle, time 3 day
[2] = 100 mg/kg, […], dose level Middle, time 7 day
[3] = 100 mg/kg, […], dose level Middle, time 14 day
[4] = 100 mg/kg, […], dose level Middle, time 28 day
[5] = 300 mg/kg, 72 h, dose level High, time 3 day
[6] = 300 mg/kg, […], dose level High, time 7 day
[7] = 300 mg/kg, […], dose level High, time 14 day
[8] = 300 mg/kg, […], dose level High, time 28 day

## CCc1oc2ccccc2c1C(=O)c1cc(I)c(O)c(I)c1 [BENZIODARONE]
[1]
  TERMINAL_BW: 247.4 g
  APTT: 17.8 s
  Bas: 0%
  Eos: 0.8%
  Fbg: 228.6 mg/dL
  Hb: 13.9 g/dL
  Ht: 41.6%
  Lym: 80.4%
  MCH: 21.3 pg
  MCHC: 33.3%
  MCV: 63.9 fL
  Mono: 5.8%
  Neu: 12.4%
  PT: 11.4 s
  Plat: 123.9 x10_4/uL
  RBC: 651.4 x10_4/ul
  Ret: 6.4%
  WBC: 123 x10_2/uL
  KIDNEY_L: 1.1 g
  KIDNEY_R: 1.1 g
  KIDNEY_TOTAL: 2.3 g
  LIVER: 14.4 g
  A/G: 1.9
  ALP: 1104 IU/L
  ALT: 38.2 IU/L
  AST: 61 IU/L
  BUN: 17.6 mg/dL
  CRE: 0.5 mg/dL
  Ca: 10.8 mg/dL
  Cl: 103.4 meq/L
  DBIL: 0.038 mg/dL
  GLC: 196 mg/dL
  IP: 7.3 mg/dL
  K: 4.4 meq/L
  LDH: 112.6 IU/L
  Na: 140.6 meq/L
  PL: 148.4 mg/dL
  RALB: 3.8 g/dL
  TBIL: 0.3 mg/dL
  TC: 79 mg/dL
  TG: 66 mg/dL
  TP: 5.9 g/dL
  gamma-GTP: 2 IU/L
[2]
  TERMINAL_BW: 273.1 g
  APTT: 17.9 s
  Bas: 0%
  Eos: 1.2%
  Fbg: 241 mg/dL
  Hb: 14.1 g/dL
  Ht: 41.6%
  Lym: 78.6%
  MCH: 21.1 pg
  MCHC: 33.9%
  MCV: 62.5 fL
  Mono: 7.2%
  Neu: 13%
  PT: 11.7 s
  Plat: 139.6 x10_4/uL
  RBC: 666.6 x10_4/ul
  Ret: 3.8%
  WBC: 95.7 x10_2/uL
  KIDNEY_L: 1.2 g
  KIDNEY_R: 1.2 g
  KIDNEY_TOTAL: 2.4 g
  LIVER: 15.6 g
  A/G: 1.7
  ALP: 1041.8 IU/L
  ALT: 35 IU/L
  AST: 65.2 IU/L
  BUN: 20.6 mg/dL
  CRE: 0.6 mg/dL
  Ca: 11 mg/dL
  Cl: 103 meq/L
  DBIL: 0.03 mg/dL
  GLC: 184 mg/dL
  IP: 7.8 mg/dL
  K: 4.5 meq/L
  LDH: 119.8 IU/L
  Na: 140.6 meq/L
  PL: 153.4 mg/dL
  RALB: 3.8 g/dL
  TBIL: 0.3 mg/dL
  TC: 78.8 mg/dL
  TG: 87.2 mg/dL
  TP: 6.1 g/dL
  gamma-GTP: 1.6 IU/L
[3]
  TERMINAL_BW: 322 g
  APTT: 18.4 s
  Bas: 0%
  Eos: 0.8%
  Fbg: 229.4 mg/dL
  Hb: 14.3 g/dL
  Ht: 42.5%
  Lym: 85%
  MCH: 20.4 pg
  MCHC: 33.6%
  MCV: 60.7 fL
  Mono: 5.2%
  Neu: 9.2%
  PT: 11.8 s
  Plat: 122.8 x10_4/uL
  RBC: 700.6 x10_4/ul
  Ret: 2.5%
  WBC: 113.1 x10_2/uL
  KIDNEY_L: 1.2 g
  KIDNEY_R: 1.3 g
  KIDNEY_TOTAL: 2.5 g
  LIVER: 16.9 g
  A/G: 2
  ALP: 712.4 IU/L
  ALT: 34.2 IU/L
  AST: 61.6 IU/L
  BUN: 20.8 mg/dL
  CRE: 0.6 mg/dL
  Ca: 10.6 mg/dL
  Cl: 105.2 meq/L
  DBIL: 0.04 mg/dL
  GLC: 199 mg/dL
  IP: 6.9 mg/dL
  K: 4.4 meq/L
  LDH: 105 IU/L
  Na: 141 meq/L
  PL: 139.6 mg/dL
  RALB: 4 g/dL
  TBIL: 0.2 mg/dL
  TC: 73.8 mg/dL
  TG: 67.6 mg/dL
  TP: 6 g/dL
  gamma-GTP: 1.2 IU/L
[4]
  TERMINAL_BW: 412 g
  APTT: 18.9 s
  Bas: 0%
  Eos: 1.4%
  Fbg: 225 mg/dL
  Hb: 15.2 g/dL
  Ht: 45.2%
  Lym: 81.8%
  MCH: 19.5 pg
  MCHC: 33.7%
  MCV: 58 fL
  Mono: 6%
  Neu: 11.2%
  PT: 11.8 s
  Plat: 114.5 x10_4/uL
  RBC: 778.6 x10_4/ul
  Ret: 3.4%
  WBC: 123.7 x10_2/uL
  KIDNEY_L: 1.4 g
  KIDNEY_R: 1.5 g
  KIDNEY_TOTAL: 2.9 g
  LIVER: 21.8 g
  A/G: 1.7
  ALP: 685.6 IU/L
  ALT: 37 IU/L
  AST: 59.2 IU/L
  BUN: 22 mg/dL
  CRE: 0.7 mg/dL
  Ca: 10.7 mg/dL
  Cl: 103.6 meq/L
  DBIL: 0.012 mg/dL
  GLC: 195.4 mg/dL
  IP: 6.4 mg/dL
  K: 4.4 meq/L
  LDH: 96.6 IU/L
  Na: 140.6 meq/L
  PL: 159.6 mg/dL
  RALB: 4.1 g/dL
  TBIL: 0.3 mg/dL
  TC: 86.4 mg/dL
  TG: 78.6 mg/dL
  TP: 6.5 g/dL
  gamma-GTP: 1.2 IU/L
[5]
  TERMINAL_BW: 237.2 g
  APTT: 19.4 s
  Bas: 0%
  Eos: 1%
  Fbg: 220.8 mg/dL
  Hb: 13.6 g/dL
  Ht: 40.1%
  Lym: 70.4%
  MCH: 22 pg
  MCHC: 33.9%
  MCV: 64.7 fL
  Mono: 9%
  Neu: 20%
  PT: 11.8 s
  Plat: 119.8 x10_4/uL
  RBC: 619.2 x10_4/ul
  Ret: 7.3%
  WBC: 107.3 x10_2/uL
  KIDNEY_L: 1 g
  KIDNEY_R: 1 g
  KIDNEY_TOTAL: 2.1 g
  LIVER: 15.3 g
  A/G: 2
  ALP: 951 IU/L
  ALT: 42.6 IU/L
  AST: 69.6 IU/L
  BUN: 16.4 mg/dL
  CRE: 0.6 mg/dL
  Ca: 10.6 mg/dL
  Cl: 104.8 meq/L
  DBIL: 0.038 mg/dL
  GLC: 178.4 mg/dL
  IP: 7 mg/dL
  K: 4.3 meq/L
  LDH: 121.6 IU/L
  Na: 141.4 meq/L
  PL: 132.4 mg/dL
  RALB: 3.8 g/dL
  TBIL: 0.3 mg/dL
  TC: 74.2 mg/dL
  TG: 34.2 mg/dL
  TP: 5.7 g/dL
  gamma-GTP: 1.4 IU/L
[6]
  TERMINAL_BW: 277.5 g
  APTT: 18.6 s
  Bas: 0%
  Eos: 0.6%
  Fbg: 217 mg/dL
  Hb: 13.9 g/dL
  Ht: 40.9%
  Lym: 82.2%
  MCH: 21.5 pg
  MCHC: 33.9%
  MCV: 63.5 fL
  Mono: 6.8%
  Neu: 10.8%
  PT: 12 s
  Plat: 125.7 x10_4/uL
  RBC: 644 x10_4/ul
  Ret: 4.3%
  WBC: 103.8 x10_2/uL
  KIDNEY_L: 1.2 g
  KIDNEY_R: 1.2 g
  KIDNEY_TOTAL: 2.4 g
  LIVER: 17.5 g
  A/G: 2
  ALP: 932.2 IU/L
  ALT: 35 IU/L
  AST: 59.4 IU/L
  BUN: 19.2 mg/dL
  CRE: 0.6 mg/dL
  Ca: 10.9 mg/dL
  Cl: 104 meq/L
  DBIL: 0.03 mg/dL
  GLC: 190.8 mg/dL
  IP: 8 mg/dL
  K: 4.1 meq/L
  LDH: 99 IU/L
  Na: 140 meq/L
  PL: 133.2 mg/dL
  RALB: 3.9 g/dL
  TBIL: 0.2 mg/dL
  TC: 72.8 mg/dL
  TG: 47 mg/dL
  TP: 5.9 g/dL
  gamma-GTP: 1.6 IU/L
[7]
  TERMINAL_BW: 313.1 g
  APTT: 19.3 s
  Bas: 0%
  Eos: 1%
  Fbg: 211.8 mg/dL
  Hb: 14.4 g/dL
  Ht: 42.6%
  Lym: 82.8%
  MCH: 21.1 pg
  MCHC: 33.9%
  MCV: 62.1 fL
  Mono: 6%
  Neu: 10.8%
  PT: 12 s
  Plat: 116.1 x10_4/uL
  RBC: 685.4 x10_4/ul
  Ret: 2.8%
  WBC: 121 x10_2/uL
  KIDNEY_L: 1.2 g
  KIDNEY_R: 1.3 g
  KIDNEY_TOTAL: 2.5 g
  LIVER: 19.2 g
  A/G: 1.7
  ALP: 877 IU/L
  ALT: 36 IU/L
  AST: 63.2 IU/L
  BUN: 21.4 mg/dL
  CRE: 0.6 mg/dL
  Ca: 10.6 mg/dL
  Cl: 104.4 meq/L
  DBIL: 0.038 mg/dL
  GLC: 195.8 mg/dL
  IP: 6.7 mg/dL
  K: 4.1 meq/L
  LDH: 95.8 IU/L
  Na: 141.4 meq/L
  PL: 123.2 mg/dL
  RALB: 3.9 g/dL
  TBIL: 0.2 mg/dL
  TC: 64.2 mg/dL
  TG: 48.2 mg/dL
  TP: 6.2 g/dL
  gamma-GTP: 1.6 IU/L
[8]
  TERMINAL_BW: 377.5 g
  APTT: 20.8 s
  Bas: 0%
  Eos: 1.6%
  Fbg: 223 mg/dL
  Hb: 15 g/dL
  Ht: 44.3%
  Lym: 78.6%
  MCH: 19.6 pg
  MCHC: 33.9%
  MCV: 57.8 fL
  Mono: 7.4%
  Neu: 12.2%
  PT: 12.3 s
  Plat: 108.9 x10_4/uL
  RBC: 768.2 x10_4/ul
  Ret: 2.8%
  WBC: 122.3 x10_2/uL
  KIDNEY_L: 1.4 g
  KIDNEY_R: 1.4 g
  KIDNEY_TOTAL: 2.8 g
  LIVER: 21.4 g
  A/G: 1.8
  ALP: 700.6 IU/L
  ALT: 39.8 IU/L
  AST: 63.4 IU/L
  BUN: 23 mg/dL
  CRE: 0.7 mg/dL
  Ca: 10.5 mg/dL
  Cl: 106.4 meq/L
  DBIL: 0.022 mg/dL
  GLC: 192.6 mg/dL
  IP: 6.4 mg/dL
  K: 4.1 meq/L
  LDH: 106.2 IU/L
  Na: 140.8 meq/L
  PL: 133 mg/dL
  RALB: 4 g/dL
  TBIL: 0.2 mg/dL
  TC: 72 mg/dL
  TG: 43.6 mg/dL
  TP: 6.2 g/dL
  gamma-GTP: 1.6 IU/L
